Marks after values point to notes of the source that are not given here.
Key:
CYP1A2 = assay: Methoxyresorufin O-demethylation in liver microsomes of treated rats; format: in vivo; conditions: rat liver microsomes; oral 2 g/kg APE or 50 mg/kg AND daily for 5 days
Description: Liver was homogenized (1 : 4, w/v) in an ice-cold potassium phosphate buffer (pH 7.4) containing 7.4 mM K2HPO4, 2.6 mM KH2PO4, 1.15% KCl, and 1 mM phenylmethylsulfonyl fluoride (PMSF). Tissue homogenates were centrifuged at 10,000 ×g for 30 min at 4°C. The resulting supernatant was then centrifuged at 105,000 ×g for 1 h at 4°C. The microsomes thus obtained were washed several times to get rid of possible tolbutamide contamination and this can avoid tolbutamide interference of CYP activity, and the microsomes were then suspended in potassium phosphate buffer (pH 7.7) containing 7.5 mM K2HPO4, 14.5 mM KH2PO4, and 1 mM EDTA. […] Metabolites of each CYP enzyme reaction were determined by LC/MS as reported previously. The contents of total CYP and cytochrome b5 were quantified by the method of Omura and Sato [29]. Enzyme activity is expressed as picomoles of metabolite formed per minute per milligram of protein. The NADPH-CYP reductase activity was measured as described by Phillips and Langdon with the use of cytochrome c as the substrate. The microsomal protein concentration was determined by using a Coomassie Plus protein assay kit (Pierce, Rockford, IL, USA).

[1] = molecular target: T1, pregnane X receptor (PXR) (Rattus norvegicus, UniProt Q9R1A7); assay: EMSA of liver nuclear protein binding to DR4 consensus sequence; format: in vivo; conditions: APE or andrographolide for 5 days
T1 construct: from tissue; host or cells: crude liver nuclear extract of treated Sprague-Dawley rats
T1 sequence (Q9R1A7 1-431): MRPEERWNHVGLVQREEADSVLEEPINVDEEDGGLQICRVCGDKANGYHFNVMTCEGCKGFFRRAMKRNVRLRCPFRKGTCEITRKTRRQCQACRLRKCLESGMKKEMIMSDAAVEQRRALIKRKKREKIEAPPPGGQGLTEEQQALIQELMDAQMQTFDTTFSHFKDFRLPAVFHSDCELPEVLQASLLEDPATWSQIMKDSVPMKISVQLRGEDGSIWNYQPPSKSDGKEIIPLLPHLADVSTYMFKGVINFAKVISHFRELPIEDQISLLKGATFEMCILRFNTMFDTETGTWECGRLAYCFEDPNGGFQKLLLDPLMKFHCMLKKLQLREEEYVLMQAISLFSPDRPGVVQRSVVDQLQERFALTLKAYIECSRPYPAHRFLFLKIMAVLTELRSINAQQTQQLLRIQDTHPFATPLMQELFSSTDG
T1 sequence (Q05343 1-467 partner): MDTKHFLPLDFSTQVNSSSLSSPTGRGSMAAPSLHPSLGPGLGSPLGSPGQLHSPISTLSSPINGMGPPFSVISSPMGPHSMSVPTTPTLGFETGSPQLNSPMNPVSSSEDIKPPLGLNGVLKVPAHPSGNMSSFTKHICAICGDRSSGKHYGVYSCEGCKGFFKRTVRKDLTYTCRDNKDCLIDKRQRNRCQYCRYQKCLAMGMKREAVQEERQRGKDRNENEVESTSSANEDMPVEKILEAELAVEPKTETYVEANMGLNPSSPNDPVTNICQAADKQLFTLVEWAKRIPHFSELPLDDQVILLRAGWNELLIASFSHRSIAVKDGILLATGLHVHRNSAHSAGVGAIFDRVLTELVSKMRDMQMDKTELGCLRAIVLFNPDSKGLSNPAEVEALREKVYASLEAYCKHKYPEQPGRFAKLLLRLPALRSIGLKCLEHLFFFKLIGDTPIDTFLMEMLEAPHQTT
Description: Nuclear proteins of liver tissues were extracted as described by Tian et al. with some modifications. Briefly, 0.1 g of liver was homogenized (1 : 9, w/v) with 0.9 mL of ice-cold 10 mM HEPES buffer (pH 7.9) containing 10 mM KCl, 1 mM MgCl2, 0.1 mM EDTA, 0.5 mM dithiothreitol, 0.5 mM PMSF, 4 μg/mL leupeptin, and 20 μg/mL aprotinin. The homogenates were placed in an ice bath for 15 min and then centrifuged at 600 ×g for 10 min. Then, 100 μL of 10% Nonidet P-40 was added to the supernatant, and the samples were allowed to sit in an ice bath for 10 min. The supernatant was centrifuged at 5,000 ×g for 5 min. The pellet, containing crude nuclei, was resuspended in 100 μL of hypertonic buffer containing 10 mM HEPES, 400 mM KCl, 1 mM MgCl2, 0.1 mM EDTA, 0.5 mM dithiothreitol, 4 μg/mL leupeptin, 20 μg/mL aprotinin, 25% glycerol, and 0.5 mM PMSF at 4°C for 45 min. Nuclear proteins were then collected by centrifugation at 12,000 ×g for 15 min.
EMSA was performed according to the method reported previously. The LightShift Chemiluminescent EMSA Kit (Pierce, Rockford, IL) and synthetic biotin-labeled double-stranded consensus oligonucleotides of DR4 (5′-[…]-3′) and xenobiotic response element (XRE) (forward: 5′-[…]-3′) were used to measure pregnane X receptor (PXR) and aryl hydrocarbon receptor (AhR) nuclear protein-DNA-binding activity. […]

## C=C1CC[C@@H]2[C@](C)(CO)[C@H](O)CC[C@@]2(C)[C@@H]1C/C=C1/C(=O)OC[C@H]1O [andrographolide, Andrographolide]
CYP1A2
  Methoxyresorufin O-demethylase (1A2): 25.6 ± 7.2^b pmol/min/mg protein
[1]
  Binding activity of the DR4 consensus sequence to nuclear protein PXR: enhanced

— publication PMC3753754, “Andrographis paniculata Extract and Andrographolide Modulate the Hepatic Drug Metabolism System and Plasma Tolbutamide Concentrations in Rats” (Evidence-based Complementary and Alternative Medicine : eCAM, 2013)
